Test results as given in ChEMBL document CHEMBL5113493, “4th generation nonsteroidal aromatase inhibitors: An iterative SAR-guided design, synthesis, and biological evaluation towards picomolar dual binding inhibitors” (Eur J Med Chem, 2022).
pIC50: −log10 of the molar value.

Tests used:
[1] = target: T1, Aromatase (Homo sapiens, UniProt P11511); type: cell-based, JEG-3
T1 sequence (P11511 whole entry): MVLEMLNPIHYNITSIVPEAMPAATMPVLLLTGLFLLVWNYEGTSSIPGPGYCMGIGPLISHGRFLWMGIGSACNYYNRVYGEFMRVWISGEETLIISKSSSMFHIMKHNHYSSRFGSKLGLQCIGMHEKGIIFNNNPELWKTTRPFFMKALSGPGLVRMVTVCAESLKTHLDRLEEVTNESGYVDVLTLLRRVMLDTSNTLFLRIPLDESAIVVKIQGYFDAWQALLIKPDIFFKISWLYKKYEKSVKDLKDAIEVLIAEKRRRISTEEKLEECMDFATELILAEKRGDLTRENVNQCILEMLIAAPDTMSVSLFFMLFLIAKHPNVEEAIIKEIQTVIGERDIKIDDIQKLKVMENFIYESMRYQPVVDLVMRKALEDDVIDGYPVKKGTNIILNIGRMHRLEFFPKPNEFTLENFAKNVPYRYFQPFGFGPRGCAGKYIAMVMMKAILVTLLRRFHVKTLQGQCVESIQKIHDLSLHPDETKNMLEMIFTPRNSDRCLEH

[2] = test system: MDA-MB-231; test: Cytotoxicity against human MDA-MB-231 cells at 1 uM measured after 48 hrs by BrdU colorimetric immunoassay; type: toxicity, cell-based; conditions: mda-mb-231, 48 h
[3] = target: Cytochrome P450 2C19 (Homo sapiens, UniProt P33261)
Chain of Cytochrome P450 2C19 (P33261 whole entry): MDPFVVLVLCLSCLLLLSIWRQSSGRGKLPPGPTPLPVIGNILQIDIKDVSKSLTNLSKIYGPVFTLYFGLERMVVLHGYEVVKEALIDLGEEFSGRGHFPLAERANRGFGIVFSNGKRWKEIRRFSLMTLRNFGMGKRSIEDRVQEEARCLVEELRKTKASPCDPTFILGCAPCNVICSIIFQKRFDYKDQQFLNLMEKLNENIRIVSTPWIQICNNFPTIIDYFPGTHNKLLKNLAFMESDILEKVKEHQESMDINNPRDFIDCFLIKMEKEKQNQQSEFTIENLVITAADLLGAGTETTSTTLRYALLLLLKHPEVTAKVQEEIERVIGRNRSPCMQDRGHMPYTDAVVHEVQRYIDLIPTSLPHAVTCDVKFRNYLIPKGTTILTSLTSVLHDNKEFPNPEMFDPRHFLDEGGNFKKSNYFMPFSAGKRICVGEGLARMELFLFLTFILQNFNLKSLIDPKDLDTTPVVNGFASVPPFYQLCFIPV

[4] = target: Cytochrome P450 2D6 (Homo sapiens, UniProt P10635)
Chain of Cytochrome P450 2D6 (P10635 whole entry): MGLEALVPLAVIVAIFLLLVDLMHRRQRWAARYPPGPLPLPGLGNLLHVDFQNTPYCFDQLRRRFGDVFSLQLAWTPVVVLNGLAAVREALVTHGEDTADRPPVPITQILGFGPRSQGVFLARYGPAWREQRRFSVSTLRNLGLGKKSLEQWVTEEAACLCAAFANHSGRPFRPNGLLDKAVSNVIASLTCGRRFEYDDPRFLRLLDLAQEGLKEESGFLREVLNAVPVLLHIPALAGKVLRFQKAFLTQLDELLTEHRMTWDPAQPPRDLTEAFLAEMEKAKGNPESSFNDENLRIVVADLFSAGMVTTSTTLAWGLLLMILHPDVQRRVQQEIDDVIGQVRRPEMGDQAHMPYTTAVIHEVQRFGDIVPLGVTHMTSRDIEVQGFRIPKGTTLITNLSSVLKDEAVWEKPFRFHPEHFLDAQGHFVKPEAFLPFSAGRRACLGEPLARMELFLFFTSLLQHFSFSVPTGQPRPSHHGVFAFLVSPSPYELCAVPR

[5] = test system: MCF-10A; test: Cytotoxicity against human MCF-10A cells at 1 uM measured after 48 hrs by BrdU colorimetric immunoassay; type: toxicity, cell-based
[6] = target: Cytochrome P450 3A4 (Homo sapiens, UniProt P08684)
Chain of Cytochrome P450 3A4 (P08684 whole entry): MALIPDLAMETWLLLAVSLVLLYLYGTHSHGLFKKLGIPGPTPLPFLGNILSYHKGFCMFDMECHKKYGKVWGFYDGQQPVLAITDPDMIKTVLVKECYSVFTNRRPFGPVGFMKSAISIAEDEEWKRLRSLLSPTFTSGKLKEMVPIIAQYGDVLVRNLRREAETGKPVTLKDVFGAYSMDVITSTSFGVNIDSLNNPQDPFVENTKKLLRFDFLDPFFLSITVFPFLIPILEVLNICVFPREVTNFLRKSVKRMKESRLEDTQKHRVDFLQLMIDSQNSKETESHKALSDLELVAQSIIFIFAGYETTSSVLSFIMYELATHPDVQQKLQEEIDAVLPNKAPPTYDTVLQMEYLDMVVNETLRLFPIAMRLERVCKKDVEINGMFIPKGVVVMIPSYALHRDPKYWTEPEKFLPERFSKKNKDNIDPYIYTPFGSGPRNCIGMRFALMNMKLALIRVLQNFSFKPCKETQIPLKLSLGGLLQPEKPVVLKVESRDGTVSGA

[7] = target: T2, Cytochrome P450 1A2 (Homo sapiens, UniProt P05177)
T2 sequence (P05177 whole entry): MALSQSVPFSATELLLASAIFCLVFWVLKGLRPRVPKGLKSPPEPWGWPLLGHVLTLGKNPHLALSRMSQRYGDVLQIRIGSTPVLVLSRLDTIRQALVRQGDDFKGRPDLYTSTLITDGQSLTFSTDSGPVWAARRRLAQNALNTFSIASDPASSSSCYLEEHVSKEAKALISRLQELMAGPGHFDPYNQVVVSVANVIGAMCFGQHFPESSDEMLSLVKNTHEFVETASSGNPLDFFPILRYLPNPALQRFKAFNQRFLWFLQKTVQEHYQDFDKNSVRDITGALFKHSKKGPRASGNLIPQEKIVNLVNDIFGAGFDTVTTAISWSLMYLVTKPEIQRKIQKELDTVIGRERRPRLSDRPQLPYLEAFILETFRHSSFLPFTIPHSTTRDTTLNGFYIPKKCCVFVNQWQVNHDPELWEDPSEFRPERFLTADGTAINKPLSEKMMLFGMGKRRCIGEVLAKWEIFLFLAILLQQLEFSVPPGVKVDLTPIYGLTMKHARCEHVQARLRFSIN

[8] = target: Cytochrome P450 2C9 (Homo sapiens, UniProt P11712)
Chain of Cytochrome P450 2C9 (P11712 whole entry): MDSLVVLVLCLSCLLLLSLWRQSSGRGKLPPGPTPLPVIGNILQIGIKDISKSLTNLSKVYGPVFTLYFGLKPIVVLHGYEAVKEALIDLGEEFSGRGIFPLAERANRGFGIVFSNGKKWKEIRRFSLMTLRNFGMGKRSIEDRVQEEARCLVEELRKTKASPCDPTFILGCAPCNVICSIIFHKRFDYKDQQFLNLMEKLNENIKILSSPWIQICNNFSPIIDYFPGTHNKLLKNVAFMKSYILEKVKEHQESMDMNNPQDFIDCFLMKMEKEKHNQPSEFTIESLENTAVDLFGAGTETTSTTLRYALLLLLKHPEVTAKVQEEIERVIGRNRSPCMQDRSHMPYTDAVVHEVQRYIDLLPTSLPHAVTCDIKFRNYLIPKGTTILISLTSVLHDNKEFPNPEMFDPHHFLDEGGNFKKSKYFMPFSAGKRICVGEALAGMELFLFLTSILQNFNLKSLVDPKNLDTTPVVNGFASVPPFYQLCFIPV

pIC50 [1]	Compound	also measured
< 6.00	COc1ccc(C(c2cc3cc(Cl)ccc3o2)n2cncn2)cc1 (stereo not drawn)	
9.11	CCC#CCOc1cc(Cn2ccnc2)c2oc3ccccc3c(=O)c2c1	
8.25	Oc1ccc2oc(C(c3ccc(Cl)cc3)n3cncn3)cc2c1 (stereo not drawn)	
10.05	CC#CCOc1ccc2cc(C(c3ccc(C#N)cc3)n3cncn3)oc2c1 (stereo not drawn)	Activity [2]: Non-Toxic; pIC50 [3]: 5.66; pIC50 [4]: < 4.60; Activity [5]: Non-Toxic; pIC50 [6]: < 4.60; pIC50 [7]: 5.54; pIC50 [8]: < 4.60
7.52	Oc1ccc(C(c2cc3cc(Cl)ccc3o2)n2cncn2)cc1 (stereo not drawn)	
7.68	CCC#CCOc1ccc2oc(C(c3ccc(Cl)cc3)n3cncn3)cc2c1 (stereo not drawn)	
< 6.00	CCC#CCOc1ccc(C(c2cc3cc(Cl)ccc3o2)n2cncn2)cc1 (stereo not drawn)	
	COc1ccc2cc(C(c3ccc(F)cc3)n3cncn3)oc2c1 (stereo not drawn)	Activity [2]: Non-Toxic; Activity [5]: Non-Toxic
9.41	Oc1ccc2cc(C(c3ccc(F)cc3)n3cncn3)oc2c1 (stereo not drawn)	Activity [2]: Non-Toxic; Activity [5]: Non-Toxic
9.34	CCOc1ccc2cc(C(c3ccc(Cl)cc3)n3cncn3)oc2c1 (stereo not drawn)	
11.00	CCC#CCOc1cc(Cn2ccnc2)c2c(=O)c3ccccc3oc2c1	
9.29	CCC#CCOc1ccc2cc(C(c3ccc(F)cc3)n3cncn3)oc2c1 (stereo not drawn)	Activity [2]: Non-Toxic; Activity [5]: Non-Toxic
9.14	CCC#CCOc1ccc2cc(C(c3ccc(C#N)cc3)n3cncn3)oc2c1 (stereo not drawn)	
8.99	C#CCOc1ccc2cc(C(c3ccc(Cl)cc3)n3cncn3)oc2c1 (stereo not drawn)	
8.39	CC#CCOc1ccc2cc(C(c3ccc(F)cc3)n3cncn3)oc2c1 (stereo not drawn)	
9.28	CC#CCOc1ccc2cc(C(c3ccc(Cl)cc3)n3cncn3)oc2c1 (stereo not drawn)	
	COc1cccc2c1C(=O)c1c(O)c3c(c(O)c1C2=O)C[C@@](O)(C(=O)CO)C[C@@H]3O[C@H]1C[C@H](N)[C@H](O)[C@H](C)O1 [DOXORUBICIN]	Activity [2]: Non-Toxic; Activity [5]: Non-Toxic
8.70	COc1ccc2oc(C(c3ccc(Cl)cc3)n3cncn3)cc2c1 (stereo not drawn)	
11.00	CCC#CCOc1ccc2c(=O)c3ccc(Cn4ccnc4)cc3oc2c1	
8.56	CCC#CCOc1ccc2cc(C(c3ccc(Cl)cc3)n3cncn3)oc2c1 (stereo not drawn)	
